# According to US10206901B2, “Method and composition for acute treatment of seizures” (JC Pharma, Inc., priority 2016, dated 2019):
# Columns and labels:
# convulsive seizures = assay: Acute intranasal treatment of convulsive seizures in pediatric human subjects; format: in vivo; conditions: human subjects weighing over 60 lbs
# Procedure: Three male human pediatric subjects, each under the age of 16, undergoing convulsive seizures, were administered from two to four 0.1 ml doses (each dose 5 mg delta-9-tetrahydrocannabinol with 8% by volume linalool) of the product disclosed herein. Administration was achieved via a nasal spray administered within one or more of the subject's nostrils using the delivery device disclosed herein by a caregiver during the occurrence of the convulsive seizure. In subject one, administered 3 doses, a visible state of cessation of the convulsions of the seizure was achieved by 21 seconds from first dose administration. In subject two, administered 4 doses, a visible state of cessation of the convulsions of the seizure was achieved by 36 seconds from first dose administration. In subject three, administered 2 doses, a visible state of cessation of the convulsions of the seizure was achieved by 27 seconds from first dose administration.
# Thus, acute treatment of the convulsive seizure using an average dose of 3×0.1 ml of the 5 mg delta-9-tetrahydrocannabinol with 8% by volume linalool achieved cessation of the convulsion symptom of the convulsive seizure within a mean time of 28 seconds from first dose administration.
# rat model of epilepsy = conditions: intraperitoneal injection, cited from earlier work
smiles,measurement,setting,value
"CCCCCc1cc(O)c2c(c1)OC(C)(C)[C@@H]1CCC(C)=C[C@@H]21 [THC, delta-9-tetrahydrocannabinol]",lowest administered THC dose per body weight at which seizures in progress were stopped,convulsive seizures,around 0.37 mg/kg
same,lowest total administered THC dose at which seizures in progress were treated and stopped,convulsive seizures,10.0 mg
same,seizure prevention,rat model of epilepsy; 30.0 mg/kg,can prevent seizures from occurring
same,ED50 anticonvulsant effect (seizure prevention),rat model of epilepsy,15.0 mg/kg
same,dose at which anticonvulsant effect starts,rat model of epilepsy,5.0 mg/kg
